Results on nine compounds are retold here after patent US9499553B2 (CHUGAI SEIYAKU KABUSHIKI KAISHA, priority 2013, dated 2016).

As usually defined, the IC50 is the point on the concentration scale where inhibition reaches its midpoint.

Common to all, as to assay type: cell-based
One assay has as its target T1, human PiT-1 (Homo sapiens, UniProt Q8WUM9).
T1 construct: expressed in transfected cells; host or cells: CHO cells
T1 sequence (Q8WUM9 1-679): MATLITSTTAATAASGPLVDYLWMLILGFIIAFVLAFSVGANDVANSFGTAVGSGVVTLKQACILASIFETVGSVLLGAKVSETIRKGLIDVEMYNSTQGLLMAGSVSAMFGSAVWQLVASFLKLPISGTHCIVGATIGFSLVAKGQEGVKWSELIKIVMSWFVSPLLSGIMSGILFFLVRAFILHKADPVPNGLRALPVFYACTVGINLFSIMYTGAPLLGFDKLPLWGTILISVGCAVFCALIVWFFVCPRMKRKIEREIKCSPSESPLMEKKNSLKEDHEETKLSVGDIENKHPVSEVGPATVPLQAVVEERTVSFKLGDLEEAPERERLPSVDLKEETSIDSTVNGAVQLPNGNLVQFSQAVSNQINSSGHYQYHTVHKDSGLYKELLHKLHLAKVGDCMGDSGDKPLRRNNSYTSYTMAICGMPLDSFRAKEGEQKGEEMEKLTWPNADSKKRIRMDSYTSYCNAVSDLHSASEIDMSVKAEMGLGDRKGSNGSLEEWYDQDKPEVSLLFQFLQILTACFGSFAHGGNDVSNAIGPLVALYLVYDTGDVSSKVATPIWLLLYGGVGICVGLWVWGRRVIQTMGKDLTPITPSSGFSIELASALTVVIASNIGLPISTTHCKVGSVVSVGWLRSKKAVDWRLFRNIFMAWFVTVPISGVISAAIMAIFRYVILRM
Put plainly: Inhibitory effect on 33PO4 uptake into human PiT-1-expressing CHO cells. The note with it: compound 0.24, 1.2, 6 or 30 μM, pH 6.5, read-out: IC50 against 33PO4 uptake into human PiT-1-expressing cells. As to the method: Test Example 3: Inhibitory Effect on ^33PO4 Uptake into Human PiT-1-Expressing Cell
(§1) CHO cells were transfected with human PiT-1 expression plasmids or empty vectors to prepare human PiT-1-expressing cells and empty vector-expressing cells. The human PiT-1-expressing cells or the empty vector-expressing cells were inoculated to a 96-well plate and incubated overnight in a CO2 incubator. […] After a given time, a 1/20 volume of buffer A containing ^33PO4 was added thereto and reacted at room temperature. After washing with ice-cold buffer A, a liquid scintillator was added to each reaction mixture, and the amount of ^33PO4 uptake was measured using TopCount. The rate of inhibition was determined according to the following expression: Rate (%) of inhibition=(1−(Amount of ^33PO4 uptake in the compound-supplemented well containing the human PiT-1-expressing cells−Amount of ^33PO4 uptake in the compound-supplemented well containing the empty vector-expressing cells)/(Amount of ^33PO4 uptake in the DMSO-supplemented well containing the human PiT-1-expressing cells −Amount of ^33PO4 uptake in the DMSO-supplemented well containing the empty vector-expressing cells))×100

In the next assay the target is T2, human NaPi-IIb (Homo sapiens, UniProt O95436).
T2 construct: expressed in transfected cells
T2 sequence (O95436 1-690): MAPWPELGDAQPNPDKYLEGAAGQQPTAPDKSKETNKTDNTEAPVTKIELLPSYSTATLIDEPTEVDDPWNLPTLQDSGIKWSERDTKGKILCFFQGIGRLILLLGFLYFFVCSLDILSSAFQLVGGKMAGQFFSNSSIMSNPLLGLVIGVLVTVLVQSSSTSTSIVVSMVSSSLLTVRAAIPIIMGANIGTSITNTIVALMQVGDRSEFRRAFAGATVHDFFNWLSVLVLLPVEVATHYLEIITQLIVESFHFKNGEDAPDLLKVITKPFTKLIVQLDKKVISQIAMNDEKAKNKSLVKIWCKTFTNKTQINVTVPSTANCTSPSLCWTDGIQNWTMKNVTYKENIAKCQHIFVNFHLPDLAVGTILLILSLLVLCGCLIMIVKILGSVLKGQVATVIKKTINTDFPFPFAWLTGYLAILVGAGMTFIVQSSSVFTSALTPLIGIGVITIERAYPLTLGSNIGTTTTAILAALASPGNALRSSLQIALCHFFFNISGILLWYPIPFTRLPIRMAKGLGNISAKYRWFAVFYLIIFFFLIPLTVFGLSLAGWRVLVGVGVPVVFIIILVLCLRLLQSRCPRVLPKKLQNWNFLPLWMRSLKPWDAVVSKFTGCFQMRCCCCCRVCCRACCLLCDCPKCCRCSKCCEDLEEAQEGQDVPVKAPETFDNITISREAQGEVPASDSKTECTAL
Briefly: Inhibitory effect on 33PO4 uptake into human NaPi-IIb-expressing CHO cells. In a few lines:
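Uptake of ³³PO4 was measured by scintillation counting after ice-cold buffer A washes. Cells were CHO stably expressing human NaPi-IIb, seeded overnight, and exposed to ³³PO4 in buffer A at room temperature.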

In another assay the target is T3, human PiT-2 (Homo sapiens, UniProt Q08357).
T3 construct: expressed in transfected cells; host or cells: CHO cells
T3 sequence (Q08357 1-652): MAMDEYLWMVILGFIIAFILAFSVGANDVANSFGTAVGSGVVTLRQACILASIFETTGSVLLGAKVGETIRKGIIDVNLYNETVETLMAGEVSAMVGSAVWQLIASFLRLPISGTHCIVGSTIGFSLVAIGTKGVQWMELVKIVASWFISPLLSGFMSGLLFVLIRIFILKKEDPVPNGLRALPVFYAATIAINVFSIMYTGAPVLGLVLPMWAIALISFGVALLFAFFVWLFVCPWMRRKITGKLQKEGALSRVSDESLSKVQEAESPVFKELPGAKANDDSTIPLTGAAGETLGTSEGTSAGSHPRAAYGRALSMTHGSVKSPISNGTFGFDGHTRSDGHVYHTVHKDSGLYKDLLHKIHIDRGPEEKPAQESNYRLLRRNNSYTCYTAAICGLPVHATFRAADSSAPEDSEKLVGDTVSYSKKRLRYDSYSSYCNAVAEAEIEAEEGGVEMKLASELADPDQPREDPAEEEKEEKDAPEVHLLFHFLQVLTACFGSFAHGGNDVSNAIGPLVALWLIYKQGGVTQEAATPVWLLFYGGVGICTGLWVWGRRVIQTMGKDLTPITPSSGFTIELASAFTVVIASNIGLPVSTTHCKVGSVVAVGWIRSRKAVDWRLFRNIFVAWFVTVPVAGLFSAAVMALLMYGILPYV
Put plainly: Inhibitory effect on 33PO4 uptake into human PiT-2-expressing CHO cells. The note with it: pH 6.5, read-out: IC50 against 33PO4 uptake into human PiT-2-expressing cells. How it is done: Test Example 4: Inhibitory Effect on ^33PO4 Uptake into Human PiT-2-Expressing Cell
as §1, with “PiT-2” for “PiT-1”, “PiT-2-expressing” for “PiT-1-expressing”

Molecules are shown by their SMILES. Structures can show the parent of a compound that is named as a salt. Where two headings read alike, the source gives them in different places.

`CN1N(Cc2ccc(OCCCCC(=O)O)c(F)c2F)C(=O)C(C(=O)Nc2ccc(C(F)(F)F)cc2-c2cc(C(F)(F)F)ncn2)=C(O)C12CCCC2` [Example 333, 5-[2,3-Difluoro-4-[[10-hydroxy-6-methyl-8-oxo-9-[[4-(trifluoromethyl)-2-[6-(trifluoromethyl)pyrimidin-4-yl]phenyl]carbamoyl]-6,7-diazaspiro[4.5]dec-9-en-7-yl]methyl]phenoxy]pentanoic acid]: the results for the IC50 at human PiT-1, on human NaPi-IIb (read-out: IC50) and at human PiT-2 were 3.6 µM, 19.5 µM and 10.4 µM, respectively.

For the compound `COCCN(C)CCOc1ccc(CN2C(=O)C(C(=O)Nc3ccc(C(F)(F)F)cc3-c3ncnc(C(F)(F)F)c3C)=C(O)C3(CCCC3)N2C)c(F)c1F` [Example 416], the IC50 came to 0.9 µM at human PiT-1, 5.8 µM on human NaPi-IIb (read-out: IC50 against 33PO4 uptake into human NaPi-IIb-expressing cells) and 1.4 µM on human PiT-2.

`C[C@]12CCCN1N(Cc1ccc(OCCCCOC[C@H](O)CO)c(F)c1F)C(=O)C(C(=O)Nc1ccc(C(F)(F)F)cc1-c1cc(C(F)(F)F)ncn1)=C2O` [Example 152, (4aR)-1-[[4-[4-[(2R)-2,3-Dihydroxypropoxy]butoxy]-2,3-difluorophenyl]methyl]-4-hydroxy-4a-methyl-2-oxo-N-[4-(trifluoromethyl)-2-[6-(trifluoromethyl)pyrimidin-4-yl]phenyl]-6,7-dihydro-5H-pyrrolo [1,2-b]pyridazine-3-carboxamide]: the values for the IC50 on human PiT-1, at human NaPi-IIb (read-out: IC50) and on human PiT-2 were 5.3 µM, 20.6 µM and 3.5 µM, respectively.

For `C[C@]12CCCN1N(Cc1ccc(C#CCCCC(=O)O)c(F)c1F)C(=O)C(C(=O)Nc1ccc(C(F)(F)F)cc1-c1cc(C(F)(F)F)ncn1)=C2O` [Example 129, 6-[4-[[(4aR)-4-Hydroxy-4a-methyl-2-oxo-3-[[4-(trifluoromethyl)-2-[6-(trifluoromethyl)pyrimidin-4-yl]phenyl]carbamoyl]-6,7-dihydro-5H-pyrrolo[1,2-b]pyridazin-1-yl]methyl]-2,3-difluorophenyl]hex-5-ynoic acid], the IC50 at human PiT-1 was 6.5 µM; at human NaPi-IIb (read-out: IC50) it was 13.7 µM; at human PiT-2, 8.7 µM.

In the case of `Cc1c(C#N)ncnc1-c1cc(C(F)(F)F)ccc1NC(=O)C1=C(O)[C@H](C(C)(C)C)N(C)N(Cc2ccc(OCCN3CCOCC3)c(F)c2F)C1=O` [Example 270, (3S)-3-tert-Butyl-N-[2-(6-cyano-5-methylpyrimidin-4-yl)-4-(trifluoromethyl)phenyl]-1-[[2,3-difluoro-4-(2-morpholin-4-yl-ethoxy)phenyl]methyl]-4-hydroxy-2-methyl-6-oxo-3H-pyridazine-5-carboxamide], the values for the half-maximal inhibitory concentration (IC50) at human PiT-1, on human NaPi-IIb (read-out: IC50) and on human PiT-2 were 3.4 µM, 14.6 µM and 3.6 µM, respectively.

As for `C[C@]12CCCN1N(Cc1ccc(CN3CCOCC3)c(F)c1F)C(=O)C(C(=O)Nc1ccc(C(F)(F)F)cc1-c1ccc(C(F)(F)F)nc1)=C2O` [Example 164, (4aR)-1-[[2,3-Difluoro-4-(morpholin-4-ylmethyl)phenyl]methyl]-4-hydroxy-4a-methyl-2-oxo-N-[4-(trifluoromethyl)-2-[6-(trifluoromethyl)pyridin-3-yl]phenyl]-6,7-dihydro-5H-pyrrolo [1,2-b]pyridazine-3-carboxamide; hydrochloride], the half-inhibitory concentration (IC50) worked out at 4.1 µM on human PiT-1, 5 µM at human NaPi-IIb (read-out: IC50) and 4.1 µM at human PiT-2.

With `C[C@]12CCCN1N(Cc1ccc(OCCCOC[C@H](O)CO)c(F)c1F)C(=O)C(C(=O)Nc1ccc(C(F)(F)F)cc1-c1ccc(C(F)(F)F)nc1)=C2O` [Example 147, (4aR)-1-[[4-[3-[(2R)-2,3-Dihydroxypropoxy)propoxy]-2,3-difluorophenyl]methyl]-4-hydroxy-4a-methyl-2-oxo-N-[4-(trifluoromethyl)-2-[6-(trifluoromethyl)pyridin-3-yl]phenyl]-6,7-dihydro-5H-pyrrolo [1,2-b]pyridazine-3-carboxamide], the figures for the IC50 at human PiT-1, on human NaPi-IIb (read-out: IC50) and at human PiT-2 were 4.4 µM, 21.5 µM and 8.4 µM, respectively.

Regarding `C[C@]12CCCN1N(Cc1cccc(Cl)c1F)C(=O)C(C(=O)Nc1cc(F)c(Br)c(F)c1)=C2O` [Example 196, (4aR)-N-(4-Bromo-3,5-difluorophenyl)-1-[(3-chloro-2-fluorophenyl)methyl]-4-hydroxy-4a-methyl-2-oxo-6,7-dihydro-5H-pyrrolo[1,2-b]pyridazine-3-carboxamide], the IC50 was determined as 5.6 µM on human PiT-1, 2.8 µM at human NaPi-IIb (read-out: IC50) and 6.2 µM at human PiT-2.

Consider `C[C@]12CCCN1N(Cc1ccc(C#CCN3CCOCC3)c(F)c1F)C(=O)C(C(=O)Nc1ccc(C(F)(F)F)cc1-c1ccc(C(F)(F)F)nc1)=C2O` [Example 140, (4aR)-1-[[2,3-Difluoro-4-(3-morpholin-4-ylprop-1-ynyl)phenyl]methyl]-4-hydroxy-4a-methyl-2-oxo-N-[4-(trifluoromethyl)-2-[6-(tri-fluoromethyl)pyridin-3-yl]phenyl]-6,7-dihydro-5H-pyrrolo[1,2-b]pyridazine-3-carboxamide], for which the results for the IC50 at human PiT-1, on human NaPi-IIb (read-out: IC50) and on human PiT-2 were 3.8 µM, 16.2 µM and 3.8 µM, respectively.
